# Like-named read-outs stand apart in the source and are kept apart here. Marks after values point to notes of the source that are not given here.
# How the values were obtained:
# [1] = tested on: Pseudomonas aeruginosa ATCC 39324, mucoid type strain (R79); test: MIC assay, CAMHB with alginate oligomer, no visible growth; type: cell-based; conditions: Pseudomonas aeruginosa, read-out: MIC
# V11 5702 (Wales) E. coli = test: as above; type: cell-based; conditions: Table 5, V11 MDR E.coli
# [2] = tested on: V23 1322 Burkholderia cepacia; test: as above; type: cell-based
# [3] = tested on: V19 non MDR Acinetobacter baumannii; test: MIC assay, CAMHB with M-block alginate oligomer, no visible growth; type: cell-based; conditions: Table 7, V19 non MDR Acin. baum
# From the text: The study described in Example 1 was repeated with the following strains of Acinetobacter baumannii, antibiotics and M-block alginate oligomer in place of OligoG CF-5/20 as detailed in Table 7. The M-block oligomer is 100% M with a DPn of 15 to 18,
# [4] = tested on: Staphylococcus aureus (MRSA) U50; test: MIC-assay, Mueller-Hinton broth with G-block alginate, 384-well, OD600 (Table 12); type: cell-based; conditions: MRSA 1040s, U50 MDR
# From the text: (§1) Minimum inhibitory concentration (MICs) of different antibiotics for strains of Streptococcus oralis and Staphylococcus aureus (MRSA) displaying MDR phenotypes in the presence of varying concentrations of OligoCF-5/20 (0-10%). (MIC values are expressed in μg ml^−1).
# Streptococcus oralis = test: as above; type: cell-based; conditions: Streptococcus oralis (5610, V17) MDR
# From the text: as §1
# MDR Pseudomonas strains = test: MIC assay of Example 1, summary over the MDR Pseudomonas strains; type: cell-based, Pseudomonas aeruginosa
# [5] = tested on: Burkholderia cepacia (LMG18941, ATCC-BAA-246); test: MIC-assay, Mueller-Hinton broth with G-block alginate, 384-well, OD600
# [6] = tested on: Acinetobacter baumannii (Egypt, V9); test: as above
# [7] = tested on: Acinetobacter lwoffii (Egypt, V10); test: as above
# V5 AIM-1 E. coli = test: MIC assay, CAMHB with alginate oligomer, no visible growth; type: cell-based; conditions: Escherichia coli, Table 4, V5 MDR E. coli
# From the text: The study described in Example 1 was repeated with the following strains of bacteria and antibiotics as detailed in Tables 4, 5 and 6.
# [8] = tested on: Pseudomonas aeruginosa (R22, PSA, V1); test: MIC-assay, Mueller-Hinton broth with G-block alginate, 384-well, OD600
# [9] = tested on: Klebsiella pneumoniae KP05 506 from India (V3); test: MIC assay, CAMHB with alginate oligomer, no visible growth; type: cell-based; conditions: Klebsiella pneumoniae, Table 1, V3 KP05 506, read-out: MIC
# [10] = ATCC39324, Table 1, R79, OligoCF-5/20 +2% G
# [11] = ATCC39324, Table 1, R79, OligoCF-5/20 +6% G
# [12] = ATCC39324, Table 1, R79, OligoCF-5/20 +10% G
# [13] = Burkholderia cepacia, Table 5, V23 MDR Burk cep, OligoCF-5/20 0G, read-out: MIC
# [14] = Table 5, V23 MDR Burk cep, OligoCF-5/20 +2% G
# [15] = Table 5, V23 MDR Burk cep, OligoCF-5/20 +6% G
# [16] = Table 5, V23 MDR Burk cep, OligoCF-5/20 +10% G
# [17] = G-block (OligoCF-5/20) 0%, read-out: MIC
# [18] = G-block (OligoCF-5/20) 2%, read-out: MIC
# [19] = G-block (OligoCF-5/20) 6%, read-out: MIC
# [20] = G-block (OligoCF-5/20) 10%, read-out: MIC
# [21] = ATCCBAA246|LMG18941, Table 8, G-block (OligoCF-5/20) 0%
# [22] = ATCCBAA246|LMG18941, Table 8, G-block (OligoCF-5/20) 2%
# [23] = ATCCBAA246|LMG18941, Table 8, G-block (OligoCF-5/20) 6%
# [24] = ATCCBAA246|LMG18941, Table 8, G-block (OligoCF-5/20) 10%
# [25] = Table 9, G-block (OligoCF-5/20) 0%
# [26] = Table 9, G-block (OligoCF-5/20) 2%
# [27] = Table 9, G-block (OligoCF-5/20) 6%
# [28] = Table 9, G-block (OligoCF-5/20) 10%
# [29] = Escherichia coli, OligoCF-5/20 0G, read-out: MIC
# [30] = Burkholderia cepacia, Table 6, V23, Experiment 1 (18-03-10), OligoCF-5/20 0G, read-out: MIC
# [31] = Burkholderia cepacia, Table 6, V23, Experiment 3 (19-03-10), OligoCF-5/20 0G, read-out: MIC
# [32] = Table 6, V23, Experiment 1 (18-03-10), OligoCF-5/20 +10% G
# [33] = Table 6, V23, Experiment 2 (18-03-10), OligoCF-5/20 +6% G
# [34] = Table 6, V23, Experiment 2 (18-03-10), OligoCF-5/20 +10% G
# [35] = Table 6, V23, Experiment 3 (19-03-10), OligoCF-5/20 +6% G
# [36] = Table 6, V23, Experiment 3 (19-03-10), OligoCF-5/20 +10% G
# [37] = Table 8, G-block (OligoCF-5/20) 0%
smiles,measurement,setting,value
O=C(O)c1cn(C2CC2)c2cc(N3CCNCC3)c(F)cc2c1=O [Ciprofloxacin],MIC,[1]; [10],0.0625 µg/mL
same,MIC,[1]; [11],0.0312 µg/mL
same,MIC,[1]; [12],0.0312 µg/mL
same,MIC,V11 5702 (Wales) E. coli; OligoCF-5/20 +2% G,64^† μg/ml
same,MIC,[2]; [13],64 µg/mL
same,MIC,[2]; [14],64 µg/mL
same,MIC,[2]; [15],64 µg/mL
same,MIC,[2]; [16],32^† μg/ml
same,MIC,[3]; M-block oligomer 0M,64 µg/mL
same,MIC,[3]; M-block oligomer +2% M,32 µg/mL
same,MIC,[3]; M-block oligomer +6% M,16 µg/mL
same,MIC,[4]; [17],32 µg/mL
same,MIC,[4]; [18],32 µg/mL
same,MIC,[4]; [19],> 1020 µg/mL
same,MIC,[4]; [20],> 1020 µg/mL
same,MIC,Streptococcus oralis; [17],32 µg/mL
same,MIC,Streptococcus oralis; G-block (OligoCF-5/20) 2%,< 0.0625 µg/mL
same,MIC,Streptococcus oralis; [19],2 µg/mL
same,MIC,Streptococcus oralis; [20],2 µg/mL
same,effectiveness when used in combination with the alginate oligomers,MDR Pseudomonas strains,more effective
same,MIC,[5]; [21],> 8 µg/mL
same,MIC,[5]; [22],> 8 µg/mL
same,MIC,[5]; [23],> 8 µg/mL
same,MIC,[5]; [24],> 8 µg/mL
same,MIC,[6]; [25],> 8 µg/mL
same,MIC,[6]; [26],> 8 µg/mL
same,MIC,[6]; [27],8 µg/mL
same,MIC,[6]; [28],8 µg/mL
same,MIC,[7]; [25],0.063 µg/mL
same,MIC,[7]; [26],0.031 µg/mL
same,MIC,[7]; [27],0.031 µg/mL
same,MIC,[7]; [28],0.031 µg/mL
CC[C@H]1OC(=O)[C@H](C)[C@@H](O[C@H]2C[C@@](C)(OC)[C@@H](O)[C@H](C)O2)[C@H](C)[C@@H](O[C@@H]2O[C@H](C)C[C@H](N(C)C)[C@H]2O)[C@](C)(O)C[C@@H](C)C(=O)[C@H](C)[C@@H](O)[C@]1(C)O [Erythromycin],MIC,"[1]; ATCC39324, Table 4, R79 non MDR (muc.), OligoCF-5/20 0G",128 µg/mL
same,MIC,"[1]; ATCC39324, Table 4, R79 non MDR (muc.), OligoCF-5/20 +2% G",64 µg/mL
same,MIC,"[1]; ATCC39324, Table 4, R79 non MDR (muc.), OligoCF-5/20 +6% G",32 µg/mL
same,MIC,"[1]; ATCC39324, Table 4, R79 non MDR (muc.), OligoCF-5/20 +10% G",2 µg/mL
same,MIC,V5 AIM-1 E. coli; OligoCF-5/20 0G,4 µg/mL
same,MIC,V5 AIM-1 E. coli; OligoCF-5/20 +2% G,4 µg/mL
same,MIC,V5 AIM-1 E. coli; OligoCF-5/20 +6% G,≤ 1 µg/mL
same,MIC,V5 AIM-1 E. coli; OligoCF-5/20 +10% G,≤ 1 µg/mL
same,MIC,V11 5702 (Wales) E. coli; [29],512 µg/mL
same,MIC,[2]; [13],512 µg/mL
same,MIC,[2]; [30],512 µg/mL
same,MIC,[2]; [31],> 512 µg/mL
same,MIC,[2]; [16],16^† μg/ml
same,MIC,[2]; [32],64^† μg/ml
same,MIC,[2]; [33],64^† μg/ml
same,MIC,[2]; [34],64^† μg/ml
same,MIC,[2]; [35],64^† μg/ml
same,MIC,[2]; [36],16^† μg/ml
same,MIC,[4]; [17],> 1020 µg/mL
same,MIC,[4]; [18],> 1020 µg/mL
same,MIC,[4]; G-block (OligoCF-5/20) 6%,1020 µg/mL
same,MIC,[4]; G-block (OligoCF-5/20) 10%,512 µg/mL
same,MIC,Streptococcus oralis; [17],2 µg/mL
same,MIC,Streptococcus oralis; [18],16 µg/mL
same,MIC,Streptococcus oralis; G-block (OligoCF-5/20) 6%,0.0312 µg/mL
same,MIC,Streptococcus oralis; G-block (OligoCF-5/20) 10%,0.0625 µg/mL
same,MIC,[8]; [37],> 512 µg/mL
same,MIC,[5]; [23],64 µg/mL
same,MIC,[5]; [24],64 µg/mL
same,MIC,[6]; [25],8 µg/mL
same,MIC,[6]; [26],2 µg/mL
same,MIC,[6]; [27],1 µg/mL
same,MIC,[6]; [28],< 1 µg/mL
same,MIC,[7]; [25],1 µg/mL
same,MIC,[7]; [26],< 1 µg/mL
same,MIC,[7]; [27],< 1 µg/mL
same,MIC,[7]; [28],< 1 µg/mL
CC(C)(O/N=C(\C(=O)N[C@@H]1C(=O)N2C(C(=O)[O-])=C(C[n+]3ccccc3)CS[C@H]12)c1csc(N)n1)C(=O)O [Ceftazidime],MIC,"[1]; ATCC39324, Table 1, R79, OligoCF-5/20 0G",< 1 µg/mL
same,MIC,[1]; [10],< 1 µg/mL
same,MIC,[1]; [11],< 1 µg/mL
same,MIC,[1]; [12],< 1 µg/mL
same,MIC,[9]; OligoCF-5/20 0G,> 1020 µg/mL
same,MIC,[9]; OligoCF-5/20 +2% G,> 1020 µg/mL
same,MIC,[9]; OligoCF-5/20 +6% G,> 1020 µg/mL
same,MIC,[9]; OligoCF-5/20 +10% G,> 1020 µg/mL
same,MIC,V11 5702 (Wales) E. coli; [29],128 µg/mL
same,MIC,V11 5702 (Wales) E. coli; OligoCF-5/20 +2% G,64^† μg/ml
same,MIC,V11 5702 (Wales) E. coli; OligoCF-5/20 +6% G,32^† μg/ml
same,MIC,V11 5702 (Wales) E. coli; OligoCF-5/20 +10% G,64^† μg/ml
same,MIC,[2]; [13],64 µg/mL
same,MIC,[2]; [30],128 µg/mL
same,MIC,"[2]; Burkholderia cepacia, Table 6, V23, Experiment 2 (18-03-10), OligoCF-5/20 0G, read-out: MIC",64 µg/mL
same,MIC,[2]; [31],64 µg/mL
same,MIC,[2]; [14],32^† μg/ml
same,MIC,[2]; [15],8 µg/mL
same,MIC,[2]; [16],<0.5^† μg/ml
same,MIC,"[2]; Table 6, V23, Experiment 1 (18-03-10), OligoCF-5/20 +2% G",64^† μg/ml
same,MIC,"[2]; Table 6, V23, Experiment 1 (18-03-10), OligoCF-5/20 +6% G",16^† μg/ml
same,MIC,[2]; [32],8^† μg/ml
same,MIC,"[2]; Table 6, V23, Experiment 2 (18-03-10), OligoCF-5/20 +2% G",64 µg/mL
same,MIC,[2]; [33],32^† μg/ml
same,MIC,[2]; [34],32^† μg/ml
same,MIC,"[2]; Table 6, V23, Experiment 3 (19-03-10), OligoCF-5/20 +2% G",32^† μg/ml
same,MIC,[2]; [35],16^† μg/ml
same,MIC,[2]; [36],4^† μg/ml
same,MIC,[4]; [17],> 16 µg/mL
same,MIC,[4]; [18],16 µg/mL
same,MIC,[4]; [19],8 µg/mL
same,MIC,[4]; [20],2 µg/mL
same,MIC,Streptococcus oralis; [17],8 µg/mL
same,MIC,Streptococcus oralis; [18],4 µg/mL
same,MIC,Streptococcus oralis; [19],0.0312 µg/mL
same,MIC,Streptococcus oralis; [20],1 µg/mL
same,effectiveness when used in combination with the alginate oligomers,MDR Pseudomonas strains,more effective
same,MIC,[8]; [37],> 16 µg/mL
same,MIC,"[8]; Table 8, G-block (OligoCF-5/20) 2%",> 16 µg/mL
same,MIC,"[8]; Table 8, G-block (OligoCF-5/20) 6%",> 16 µg/mL
same,MIC,"[8]; Table 8, G-block (OligoCF-5/20) 10%",> 16 µg/mL
same,MIC,[5]; [21],> 16 µg/mL
same,MIC,[5]; [22],16 µg/mL
same,MIC,[5]; [23],16 µg/mL
same,MIC,[5]; [24],16 µg/mL
same,MIC,[6]; [25],> 16 µg/mL
same,MIC,[6]; [26],> 16 µg/mL
same,MIC,[6]; [27],> 16 µg/mL
same,MIC,[6]; [28],> 16 µg/mL
same,MIC,[7]; [25],2 µg/mL
same,MIC,[7]; [26],1 µg/mL
same,MIC,[7]; [27],0.25 µg/mL
same,MIC,[7]; [28],0.25 µg/mL

# — patent US9801901B2, “Alginate oligomers for use in overcoming multidrug resistance in bacteria” (priority 2009, dated 2017)
